Four sequences from patent US20070128217A1 (priority 2003, published 2007) can be followed below.

The subject of experiment [1] is antibodies in sera from SARS patients (sera 1a, 1b, 2, 6, 37, 62, London, SARS-yellow, SARS-green). In kind it is binding, human. Also on record: Binding of serum 6 to linear peptides of protein X1 of SARS-CoV Urbani / Binding of serum 37 to linear peptides of protein X1 of SARS-CoV Urbani / Binding of serum 6 to looped/cyclic peptide (PEPSCAN-ELISA) / Binding of serum 37 to looped/cyclic peptide (PEPSCAN-ELISA) / Binding of serum 37 to looped/cyclic peptides of protein X1 of SARS-CoV Urbani / Binding of serum 6 to linear peptides of protein X2 / Binding of serum 37 to linear peptides of protein X2 / Binding of serum 37 to looped/cyclic peptides of protein X2 of SARS-CoV Urbani / Binding of serum 6 to linear peptides of protein M of SARS-CoV Urbani / Binding of serum 37 to linear peptides of protein M of SARS-CoV Urbani / Binding of serum 6 to looped/cyclic peptides of protein M of SARS-CoV Urbani / Binding of serum 37 to looped/cyclic peptides of protein M of SARS-CoV Urbani / Binding of serum 6 to linear peptides of protein X3 of SARS-CoV Urbani / Binding of serum 37 to linear peptides of protein X3 of SARS-CoV Urbani / Binding of serum 37 to looped/cyclic peptides of protein X3 of SARS-CoV Urbani / Binding of serum 6 to linear peptides of protein X4 of SARS-CoV Urbani / Binding of serum 37 to linear peptides of protein X4 of SARS-CoV Urbani / Binding of serum 37 to looped/cyclic peptides of protein X4 of SARS-CoV Urbani / Binding of serum 6 to linear peptides of protein X5 of SARS-CoV Urbani / Binding of serum 37 to linear peptides of protein X5 of SARS-CoV Urbani / Binding of serum 37 to looped/cyclic peptides of protein X5 of SARS-CoV Urbani / Binding of serum 6 to linear peptides of protein N of SARS-CoV Urbani / Binding of serum 37 to linear peptides of protein N of SARS-CoV Urbani / Binding of serum 6 to linear peptide (PEPSCAN-ELISA) / Binding of serum 1a to looped/cyclic peptides of protein N of SARS-CoV Urbani / Binding of serum 1b to looped/cyclic peptides of protein N of SARS-CoV Urbani / Binding of serum 2 to looped/cyclic peptides of protein N of SARS-CoV Urbani / Binding of serum 6 to looped/cyclic peptides of protein N of SARS-CoV Urbani / Binding of serum 37 to looped/cyclic peptides of protein N of SARS-CoV Urbani / Binding of serum 62 to looped/cyclic peptides of protein N of SARS-CoV Urbani / Binding of serum London to looped/cyclic peptides of protein N of SARS-CoV Urbani / Binding of serum SARS-green to looped/cyclic peptides of protein N of SARS-CoV Urbani: unit not given here.

Experiment [2] deals with control sera (pooled serum of ten healthy LUMC hospital workers; commercial negative donor pooled serum from the Dutch bloodbank). Format: binding, human. Also on record: Binding of Control serum LUMC to linear peptides / Binding of Control serum Blood-bank to linear peptides / Binding of Control serum LUMC to looped peptides / Binding of Control Serum Blood-Bank to Looped peptides / Binding of Control serum LUMC to linear peptides of the protein M of SARS-CoV Urbani / Binding of Control serum Blood-bank to linear peptides of the protein M of SARS-CoV Urbani / Binding of Control serum LUMC to looped peptides of the protein M of SARS-CoV Urbani / Binding of Control Serum Blood-Bank to Looped peptides of the protein M of SARS-CoV Urbani: unit not given here.

Experiment [3] relates to rabbit serum obtained by immunizing a rabbit with the SARS-CoV strain Frankfurt 1. In kind it is binding. Also on record: Binding of a rabbit serum to linear peptides / Binding of a rabbit serum to looped peptides / Rabbit serum linear peptides / Rabbit serum looped peptides / Binding of a rabbit serum to linear peptides of protein N of SARS-CoV Urbani (Rabbit serum linear peptides) / Binding of a rabbit serum to looped/cyclic peptides of protein N of SARS-CoV Urbani (Rabbit serum looped peptides): unit not given here.

For the sequence FALTCTSTHFAFACA, in experiment [1], the “Binding of serum 1a to linear peptides of protein X4 of SARS-CoV Urbani” value is 0.7, the “Binding of serum 1a to looped/cyclic peptides of protein X4 of SARS-CoV Urbani” value is reported as 0.8, the “Binding of serum 1b to linear peptides of protein X4 of SARS-CoV Urbani” value was 0.5 and the “Binding of serum 1b to looped/cyclic peptides of protein X4 of SARS-CoV Urbani” value is given as 0.5. In addition, in experiment [1], the “Binding of serum 2 to linear peptides of protein X4 of SARS-CoV Urbani” value was determined as 0.4, the “Binding of serum 2 to looped/cyclic peptides of protein X4 of SARS-CoV Urbani” value was 0.7, the “Binding of serum 6 to linear peptides of protein X4 of SARS-CoV Urbani” value came to 0.5 and the “Binding of serum 6 to looped/cyclic peptides of protein X4 of SARS-CoV Urbani” value is listed as 0.5. For the same sequence, in experiment [1], the “Binding of serum 37 to linear peptides of protein X4 of SARS-CoV Urbani” value came out at 0.7, the “Binding of serum 37 to looped/cyclic peptides of protein X4 of SARS-CoV Urbani” value is listed as 0.6, the “Binding of serum 62 to linear peptides of protein X4 of SARS-CoV Urbani” value was found to be 0.7 and the “Binding of serum 62 to looped/cyclic peptides of protein X4 of SARS-CoV Urbani” value was 0.7. Further, in experiment [1], the “Binding of serum London to linear peptides of protein X4 of SARS-CoV Urbani” value was determined as 0.7, the “Binding of serum London to looped/cyclic peptides of protein X4 of SARS-CoV Urbani” value is on record as 0.3, the “Binding of serum SARS-green to linear peptides of protein X4 of SARS-CoV Urbani” value is 0.5 and the “Binding of serum SARS-green to looped/cyclic peptides of protein X4 of SARS-CoV Urbani” value came to 0.5. Further, in experiment [1], the “Binding of serum SARS-yellow to linear peptides of protein X4 of SARS-CoV Urbani” value came out at 0.6 and the “Binding of serum SARS-yellow to looped/cyclic peptides of protein X4 of SARS-CoV Urbani” value is 0.7. In addition, in experiment [2], the “Binding of Control Serum Blood-Bank to Looped peptides” value stood at 0.7, the “Binding of Control serum Blood-bank to linear peptides” value came out at 0.6, the “Binding of Control serum LUMC to linear peptides” value is reported as 0.6 and the “Binding of Control serum LUMC to looped peptides” value is reported as 0.6. Also, in experiment [3], the “Rabbit serum linear peptides” value was determined as 0.6 and the “Rabbit serum looped peptides” value is 0.4.

Regarding FARTRSMWSFNPETN, in experiment [1], the “Binding of serum 1a to linear peptides of protein M of SARS-CoV Urbani” value is recorded as 0.8, the “Binding of serum 1a to looped/cyclic peptides of protein M of SARS-CoV Urbani” value worked out at 0.9, the “Binding of serum 1b to linear peptides of protein M of SARS-CoV Urbani” value was 0.7 and the “Binding of serum 1b to looped/cyclic peptides of protein M of SARS-CoV Urbani” value worked out at 0.6. In experiment [1], the “Binding of serum 2 to linear peptides of protein M of SARS-CoV Urbani” value worked out at 0.7, the “Binding of serum 2 to looped/cyclic peptides of protein M of SARS-CoV Urbani” value is 0.6, the “Binding of serum 6 to linear peptides of protein M of SARS-CoV Urbani” value amounted to 0.4 and the “Binding of serum 6 to looped/cyclic peptides of protein M of SARS-CoV Urbani” value is on record as 0.7. Besides, in experiment [1], the “Binding of serum 37 to linear peptides of protein M of SARS-CoV Urbani” value amounted to 0.9, the “Binding of serum 37 to looped/cyclic peptides of protein M of SARS-CoV Urbani” value was 0.9, the “Binding of serum 62 to linear peptides of protein M of SARS-CoV Urbani” value is listed as 0.8 and the “Binding of serum 62 to looped/cyclic peptides of protein M of SARS-CoV Urbani” value worked out at 0.8. Besides, in experiment [1], the “Binding of serum London to linear peptides of protein M of SARS-CoV Urbani” value turned out to be 0.4, the “Binding of serum London to looped/cyclic peptides of protein M of SARS-CoV Urbani” value turned out to be 0.3, the “Binding of serum SARS-green to linear peptides of protein M of SARS-CoV Urbani” value stood at 0.3 and the “Binding of serum SARS-green to looped/cyclic peptides of protein M of SARS-CoV Urbani” value came to 0.0. For the same sequence, in experiment [1], the “Binding of serum SARS-yellow to linear peptides of protein M of SARS-CoV Urbani” value was found to be 0.1 and the “Binding of serum SARS-yellow to looped/cyclic peptides of protein M of SARS-CoV Urbani” value is 0.5. In experiment [2], the “Binding of Control Serum Blood-Bank to Looped peptides of the protein M of SARS-CoV Urbani” value came out at 0.8, the “Binding of Control serum Blood-bank to linear peptides of the protein M of SARS-CoV Urbani” value worked out at 0.9, the “Binding of Control serum LUMC to linear peptides of the protein M of SARS-CoV Urbani” value is 0.5 and the “Binding of Control serum LUMC to looped peptides of the protein M of SARS-CoV Urbani” value turned out to be 0.6. For the same sequence, in experiment [3], the “Rabbit serum linear peptides” value came out at 0.4 and the “Rabbit serum looped peptides” value was determined as 0.3.

In the case of FLQCINACRIIMRCW, in experiment [1], the “Binding of serum 1a to linear peptides of protein X1 of SARS-CoV Urbani” value turned out to be 0.8, the “Binding of serum 1a to looped/cyclic peptide (PEPSCAN-ELISA)” value came to 0.6, the “Binding of serum 1b to linear peptides of protein X1 of SARS-CoV Urbani” value is 0.6 and the “Binding of serum 1b to looped/cyclic peptide (PEPSCAN-ELISA)” value is recorded as 0.4. Further, in experiment [1], the “Binding of serum 2 to linear peptides of protein X1 of SARS-CoV Urbani” value is 0.6, the “Binding of serum 2 to looped/cyclic peptide (PEPSCAN-ELISA)” value was 0.5, the “Binding of serum 6 to linear peptides of protein X1 of SARS-CoV Urbani” value is reported as 0.7 and the “Binding of serum 6 to looped/cyclic peptide (PEPSCAN-ELISA)” value is given as 0.7. In experiment [1], the “Binding of serum 37 to linear peptides of protein X1 of SARS-CoV Urbani” value is given as 0.7, the “Binding of serum 37 to looped/cyclic peptide (PEPSCAN-ELISA)” value is reported as 0.6, the “Binding of serum 62 to linear peptides of protein X1 of SARS-CoV Urbani” value turned out to be 0.6 and the “Binding of serum 62 to looped/cyclic peptide (PEPSCAN-ELISA)” value is recorded as 0.6. Moreover, in experiment [1], the “Binding of serum London to linear peptides of protein X1 of SARS-CoV Urbani” value came to 0.3, the “Binding of serum London to looped/cyclic peptide (PEPSCAN-ELISA)” value worked out at 1.0, the “Binding of serum SARS-green to linear peptides of protein X1 of SARS-CoV Urbani” value is 0.3 and the “Binding of serum SARS-green to looped/cyclic peptide (PEPSCAN-ELISA)” value was 0.2. Further, in experiment [1], the “Binding of serum SARS-yellow to linear peptides of protein X1 of SARS-CoV Urbani” value is 0.4 and the “Binding of serum SARS-yellow to looped/cyclic peptide (PEPSCAN-ELISA)” value was found to be 0.6. Besides, in experiment [2], the “Binding of Control Serum Blood-Bank to Looped peptides” value turned out to be 0.6, the “Binding of Control serum Blood-bank to linear peptides” value worked out at 0.8, the “Binding of Control serum LUMC to linear peptides” value is reported as 0.9 and the “Binding of Control serum LUMC to looped peptides” value was 0.6. In experiment [3], the “Binding of a rabbit serum to linear peptides” value came out at 0.1 and the “Binding of a rabbit serum to looped peptides” value came out at 0.8.

On to FLYIIKLVFLWLLWP, for which, in experiment [1], the “Binding of serum 1a to linear peptides of protein M of SARS-CoV Urbani” value turned out to be 0.8, the “Binding of serum 1b to linear peptides of protein M of SARS-CoV Urbani” value came to 0.5, the “Binding of serum 2 to linear peptides of protein M of SARS-CoV Urbani” value was determined as 1.0 and the “Binding of serum 6 to linear peptides of protein M of SARS-CoV Urbani” value stood at 0.3. Further, in experiment [1], the “Binding of serum 37 to linear peptides of protein M of SARS-CoV Urbani” value is recorded as 0.8, the “Binding of serum 62 to linear peptides of protein M of SARS-CoV Urbani” value was determined as 0.9, the “Binding of serum London to linear peptides of protein M of SARS-CoV Urbani” value was found to be 0.3 and the “Binding of serum SARS-green to linear peptides of protein M of SARS-CoV Urbani” value was 0.3. For the same sequence, in experiment [1], the “Binding of serum SARS-yellow to linear peptides of protein M of SARS-CoV Urbani” value is reported as 0.1; the “Recognition of the peptide by sera of SARS-CoV infected individuals, and form (linear, looped/cyclic) in which it is recognized” value is on record as “recognized in looped/cyclic form”. In experiment [2], the “Binding of Control Serum Blood-Bank to Looped peptides of the protein M of SARS-CoV Urbani” value was 0.8, the “Binding of Control serum Blood-bank to linear peptides of the protein M of SARS-CoV Urbani” value is recorded as 0.8, the “Binding of Control serum LUMC to linear peptides of the protein M of SARS-CoV Urbani” value amounted to 0.4 and the “Binding of Control serum LUMC to looped peptides of the protein M of SARS-CoV Urbani” value came out at 0.9. Besides, in experiment [3], the “Rabbit serum linear peptides” value was determined as 0.4 and the “Rabbit serum looped peptides” value turned out to be 0.4.
